From US20220119354A1, “DIAMINO-SUBSTITUTED PYRIDINES AND PYRIMIDINES AS HERBICIDES” (FMC Corporation, priority 2019, published 2022)

Experiments:
Type in all cases: in vivo
[1] = tested on: pigweed (Amaranthus retroflexus); experiment: Test A preemergence, pigweed; details: 0 to 100 scale, 0 is no effect, 100 is complete control
In short: (§1)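 Pots of loam–sand mix; preemergence directed soil spray at sowing, postemergence spray at one- to two-leaf stage. Readout: visual injury vs untreated controls, ~10 d, 0–100 scale.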

[2] = tested on: ragweed (common ragweed, Ambrosia elatior); experiment: Test A postemergence, ragweed; details: 0 to 100 scale, 0 no effect, 100 complete control
In short: as §1

kochia (Kochia scoparia) [3] = experiment: Test A postemergence, kochia; details: 0 to 100 scale, 0 no effect, 100 complete control
In short: as §1

[4] = tested on: ducksalad (Heteranthera limosa); experiment: Test B flooded paddy test, ducksalad; details: Flood, 250 g ai/ha, applied to paddy water, 2-leaf stage, visual evaluation after 13 to 15 d
In short: (§2)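 Plants grown to 2-leaf stage. Compounds applied directly into paddy water flooded 3 cm above soil, with that depth kept throughout. After 13–15 d in greenhouse, visual rating versus controls on a 0–100 scale (0 no effect, 100 complete control).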

[5] = tested on: barnyardgrass (Echinochloa crus-galli); experiment: Test B flooded paddy test, barnyardgrass; details: Flood, 250 g ai/ha, applied to paddy water, 2-leaf stage, visual evaluation after 13 to 15 d
In short: as §2

[6] = tested on: galium (catchweed bedstraw, Galium aparine); experiment: Test A postemergence, galium; details: 0 to 100 scale, 0 no effect, 100 complete control
In short: as §1

[7] = tested on: ryegrass, Italian (Lolium multiflorum); experiment: Test A postemergence, Italian ryegrass; details: 0 to 100 scale, 0 no effect, 100 complete control
In short: as §1

[8] = tested on: foxtail, giant (Setaria faberii); experiment: Test A postemergence, giant foxtail; details: 0 to 100 scale, 0 no effect, 100 complete control
In short: as §1

[9] = tested on: wheat (Triticum aestivum); experiment: Test A postemergence, wheat; details: 0 to 100 scale, 0 no effect, 100 complete control
In short: as §1

[10] = tested on: blackgrass (Alopecurus myosuroides); experiment: Test A postemergence, blackgrass; details: 0 to 100 scale, 0 no effect, 100 complete control
In short: as §1

[11] = tested on: barnyardgrass (Echinochloa crus-galli); experiment: Test A postemergence, barnyardgrass; details: 0 to 100 scale, 0 no effect, 100 complete control
In short: as §1

[12] = tested on: sedge, umbrella (small-flower umbrella sedge, Cyperus difformis); experiment: Test B flooded paddy test, umbrella sedge; details: Flood, 250 g ai/ha, applied to paddy water, 2-leaf stage, visual evaluation after 13 to 15 d
In short: as §2

[13] = tested on: pigweed (Amaranthus retroflexus); experiment: Test A postemergence, pigweed; details: 0 to 100 scale, 0 no effect, 100 complete control
In short: as §1

[14] = tested on: barnyardgrass (Echinochloa crus-galli); experiment: Test A preemergence, barnyardgrass; details: 0 to 100 scale, 0 is no effect, 100 is complete control
In short: as §1

[15] = tested on: foxtail, giant (Setaria faberii); experiment: Test A preemergence, giant foxtail; details: 0 to 100 scale, 0 is no effect, 100 is complete control
In short: as §1

[16] = tested on: ragweed (common ragweed, Ambrosia elatior); experiment: Test A preemergence, ragweed; details: 0 to 100 scale, 0 is no effect, 100 is complete control
In short: as §1

rice (Oryza sativa) = experiment: Test B flooded paddy test, rice; details: Flood, 250 g ai/ha, applied to paddy water, 2-leaf stage, visual evaluation after 13 to 15 d
In short: as §2

kochia (Kochia scoparia) [17] = experiment: Test A preemergence, kochia; details: 0 to 100 scale, 0 is no effect, 100 is complete control
In short: as §1

[18] = tested on: ryegrass, Italian (Lolium multiflorum); experiment: Test A preemergence, Italian ryegrass; details: 0 to 100 scale, 0 is no effect, 100 is complete control
In short: as §1

corn (Zea mays) = experiment: Test A postemergence, corn; details: 0 to 100 scale, 0 no effect, 100 complete control
In short: as §1

Row | SMILES | Pigweed plant response rating ([1]; 125 g ai/ha) | Plant response rating, Ragweed ([2]; 125 g ai/ha) | Plant response rating, Kochia (kochia (Kochia scoparia) [3]; 125 g ai/ha) | Plant response rating, Ducksalad (0 to 100 scale, 0 is no effect, 100 is complete control) [4] | Plant response rating, Barnyardgrass (0 to 100 scale, 0 is no effect, 100 is complete control) [5] | Plant response rating, Galium ([6]; 125 g ai/ha) | Plant response rating, Ryegrass, Italian ([7]; 125 g ai/ha) | Plant response rating, Foxtail, Giant ([8]; 125 g ai/ha) | Plant response rating, Wheat ([9]; 125 g ai/ha) | Plant response rating, Blackgrass ([10]; 125 g ai/ha) | Plant response rating, Barnyardgrass ([11]; 125 g ai/ha) | Plant response rating, Sedge, Umbrella (0 to 100 scale, 0 is no effect, 100 is complete control) [12] | Plant response rating, Pigweed ([13]; 125 g ai/ha) | Barnyardgrass plant response rating ([14]; 125 g ai/ha) | Foxtail, Giant plant response rating ([15]; 125 g ai/ha) | Ragweed plant response rating ([16]; 125 g ai/ha) | Plant response rating, Rice (0 to 100 scale, 0 is no effect, 100 is complete control) (rice (Oryza sativa)) | Kochia plant response rating (kochia (Kochia scoparia) [17]; 125 g ai/ha) | Ryegrass, Italian plant response rating ([18]; 125 g ai/ha) | Plant response rating, Corn (corn (Zea mays); 125 g ai/ha) | further results
1 | Cc1nc(NC(C)c2coc3ccccc23)nc(N)c1C(F)(F)F (stereo not drawn) [Compound 106] | 30 | 20 | 80 | 0 | 0 | 70 | 0 | 0 | 0 | 0 | 0 | 0 | 70 | 0 | 0 | 60 | 0 | 80 | 0 | 0 | Pigweed plant response rating ([1]; 500 g ai/ha): 100; Plant response rating, Ragweed ([2]; 500 g ai/ha): 100; Plant response rating, Kochia (kochia (Kochia scoparia) [3]; 500 g ai/ha): 90; Plant response rating, Galium ([6]; 500 g ai/ha): 80; Plant response rating, Ryegrass, Italian ([7]; 500 g ai/ha): 0; Plant response rating, Foxtail, Giant ([8]; 500 g ai/ha): 0; Plant response rating, Wheat ([9]; 500 g ai/ha): 0; Plant response rating, Blackgrass ([10]; 500 g ai/ha): 0; Plant response rating, Barnyardgrass ([11]; 500 g ai/ha): 30; Plant response rating, Pigweed ([13]; 500 g ai/ha): 100; Barnyardgrass plant response rating ([14]; 500 g ai/ha): 0; Foxtail, Giant plant response rating ([15]; 500 g ai/ha): 50; Ragweed plant response rating ([16]; 500 g ai/ha): 100; Kochia plant response rating (kochia (Kochia scoparia) [17]; 500 g ai/ha): 90; Ryegrass, Italian plant response rating ([18]; 500 g ai/ha): 30; Plant response rating, Corn (corn (Zea mays); 500 g ai/ha): 0
2 | CC(Nc1ncc(S(C)(=O)=O)c(N)n1)c1cc2ccccc2s1 (stereo not drawn) [Compound 107] | 60 | 40 | 50 | 70 | 45 | 70 | 0 | 10 | 0 | 0 | 20 | 75 | 80 | 20 | 30 | 100 | 0 | 80 | 50 | 0 | Pigweed plant response rating ([1]; 500 g ai/ha): 100; Plant response rating, Ragweed ([2]; 500 g ai/ha): 100; Plant response rating, Kochia (kochia (Kochia scoparia) [3]; 500 g ai/ha): 90; Plant response rating, Galium ([6]; 500 g ai/ha): 80; Plant response rating, Ryegrass, Italian ([7]; 500 g ai/ha): 40; Plant response rating, Foxtail, Giant ([8]; 500 g ai/ha): 60; Plant response rating, Wheat ([9]; 500 g ai/ha): 30; Plant response rating, Blackgrass ([10]; 500 g ai/ha): 80; Plant response rating, Barnyardgrass ([11]; 500 g ai/ha): 100; Plant response rating, Pigweed ([13]; 500 g ai/ha): 100; Barnyardgrass plant response rating ([14]; 500 g ai/ha): 100; Foxtail, Giant plant response rating ([15]; 500 g ai/ha): 100; Ragweed plant response rating ([16]; 500 g ai/ha): 100; Kochia plant response rating (kochia (Kochia scoparia) [17]; 500 g ai/ha): 100; Ryegrass, Italian plant response rating ([18]; 500 g ai/ha): 90; Plant response rating, Corn (corn (Zea mays); 500 g ai/ha): 30
3 | CC(F)c1nc(N[C@H](C)c2cc3ccccc3s2)nc(N)c1C(F)(F)F (stereo partly drawn) [Compound 108] | 90 | 50 | 70 | 30 | 35 | 70 | 50 | 20 | 0 | 0 | 0 | 75 | 90 | 30 | 30 | 70 | 0 | 90 | 30 | 10 | Pigweed plant response rating ([1]; 31 g ai/ha): 70; Plant response rating, Ragweed ([2]; 31 g ai/ha): 30; Plant response rating, Kochia (kochia (Kochia scoparia) [3]; 31 g ai/ha): 40; Plant response rating, Galium ([6]; 31 g ai/ha): 50; Plant response rating, Ryegrass, Italian ([7]; 31 g ai/ha): 0; Plant response rating, Foxtail, Giant ([8]; 31 g ai/ha): 0; Plant response rating, Wheat ([9]; 31 g ai/ha): 0; Plant response rating, Blackgrass ([10]; 31 g ai/ha): 0; Plant response rating, Barnyardgrass ([11]; 31 g ai/ha): 20; Plant response rating, Pigweed ([13]; 31 g ai/ha): 70; Barnyardgrass plant response rating ([14]; 31 g ai/ha): 40; Foxtail, Giant plant response rating ([15]; 31 g ai/ha): 30; Ragweed plant response rating ([16]; 31 g ai/ha): 50; Kochia plant response rating (kochia (Kochia scoparia) [17]; 31 g ai/ha): 90; Ryegrass, Italian plant response rating ([18]; 31 g ai/ha): 0; Plant response rating, Corn (corn (Zea mays); 31 g ai/ha): 0
4 | C[C@@H](Nc1nc(N)c(C(F)(F)F)c(C(F)F)n1)c1cc2ccccc2s1 [Compound 109] | 90 | 60 | 70 | 65 | 35 | 70 | 0 | 20 | 0 | 10 | 0 | 75 | 90 | 0 | 30 | 90 | 20 | 90 | 40 | 0 | Pigweed plant response rating ([1]; 31 g ai/ha): 70; Plant response rating, Ragweed ([2]; 31 g ai/ha): 50; Plant response rating, Kochia (kochia (Kochia scoparia) [3]; 31 g ai/ha): 50; Plant response rating, Galium ([6]; 31 g ai/ha): 40; Plant response rating, Ryegrass, Italian ([7]; 31 g ai/ha): 0; Plant response rating, Foxtail, Giant ([8]; 31 g ai/ha): 0; Plant response rating, Wheat ([9]; 31 g ai/ha): 0; Plant response rating, Blackgrass ([10]; 31 g ai/ha): 10; Plant response rating, Barnyardgrass ([11]; 31 g ai/ha): 0; Plant response rating, Pigweed ([13]; 31 g ai/ha): 80; Barnyardgrass plant response rating ([14]; 31 g ai/ha): 0; Foxtail, Giant plant response rating ([15]; 31 g ai/ha): 0; Ragweed plant response rating ([16]; 31 g ai/ha): 30; Kochia plant response rating (kochia (Kochia scoparia) [17]; 31 g ai/ha): 80; Ryegrass, Italian plant response rating ([18]; 31 g ai/ha): 20; Plant response rating, Corn (corn (Zea mays); 31 g ai/ha): 0
5 | C[C@@H](Nc1ncc([S+](C)[O-])c(N)n1)c1cc2ccccc2s1 (stereo partly drawn) [Compound 110] | 30 | 30 | 10 | 60 | 20 | 70 | 0 | 0 | 0 | 0 | 10 | 90 | 80 | 0 | 0 | 80 | 15 | 0 | 0 | 10 | Pigweed plant response rating ([1]; 31 g ai/ha): 0; Plant response rating, Ragweed ([2]; 31 g ai/ha): 0; Plant response rating, Kochia (kochia (Kochia scoparia) [3]; 31 g ai/ha): 0; Plant response rating, Galium ([6]; 31 g ai/ha): 30; Plant response rating, Ryegrass, Italian ([7]; 31 g ai/ha): 0; Plant response rating, Foxtail, Giant ([8]; 31 g ai/ha): 0; Plant response rating, Wheat ([9]; 31 g ai/ha): 0; Plant response rating, Blackgrass ([10]; 31 g ai/ha): 0; Plant response rating, Barnyardgrass ([11]; 31 g ai/ha): 0; Plant response rating, Pigweed ([13]; 31 g ai/ha): 60; Barnyardgrass plant response rating ([14]; 31 g ai/ha): 0; Foxtail, Giant plant response rating ([15]; 31 g ai/ha): 0; Ragweed plant response rating ([16]; 31 g ai/ha): 40; Kochia plant response rating (kochia (Kochia scoparia) [17]; 31 g ai/ha): 0; Ryegrass, Italian plant response rating ([18]; 31 g ai/ha): 0; Plant response rating, Corn (corn (Zea mays); 31 g ai/ha): 0
